In patent publication US5246935A, “Piperazinyl derivatives and methods of treating central nervous system ailments relating to the 5-HT2 receptor system” (Novo Nordisk A/S, priority 1990, dated 1993) one finds IC50 and ED50 data, which are given here for four molecules.

For one experiment, the target named is T1, 5HT2 receptor (Rattus norvegicus, UniProt P14842).
T1 construct: incubated with isolated cell-membrane fragments; from tissue; host or cells: frontal cortex of male Wistar rats (membranes)
T1 sequence (P14842 whole entry, the tested form may be a part): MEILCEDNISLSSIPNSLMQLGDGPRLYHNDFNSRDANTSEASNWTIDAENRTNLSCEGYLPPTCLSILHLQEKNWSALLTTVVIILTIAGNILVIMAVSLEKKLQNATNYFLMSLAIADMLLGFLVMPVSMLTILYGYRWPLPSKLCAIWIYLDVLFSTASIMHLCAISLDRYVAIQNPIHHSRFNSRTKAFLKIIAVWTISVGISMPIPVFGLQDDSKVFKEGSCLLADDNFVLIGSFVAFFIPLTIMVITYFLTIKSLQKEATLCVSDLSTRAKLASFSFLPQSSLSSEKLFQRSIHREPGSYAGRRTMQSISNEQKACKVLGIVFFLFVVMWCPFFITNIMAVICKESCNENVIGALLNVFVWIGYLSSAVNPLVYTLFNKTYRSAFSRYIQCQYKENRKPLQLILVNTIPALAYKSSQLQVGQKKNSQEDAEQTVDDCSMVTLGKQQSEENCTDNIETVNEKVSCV
Description: In Vitro Inhibition of 5HT2-Receptor Binding (3H-Ketanserine). Also on record: species or system rat (male Wistar). To be noted: 3H-Ketanserine 0.4 nM, rat frontal cortex, 37° C., 15 min. The procedure:
In Vitro Inhibition of 5HT2 -Receptor Binding
Radioactive-labelled ligand ^3 H-Ketanserine is incubated with isolated cell-membrane fragments at 37° C. for a given period of time. Following completed incubation, the incubate is filtered through GF/B filters which are rinsed after filtration to remove unspecifically adhered radioactivity. As opposed to low-molecular compounds, membrane fragments are not rinsed through the filters, the radioactivity bound to the filters indicates the amount of ligand bound specifically as well as non-specifically to the membranes.
The preparation is made in ice bath. Polytron kinematica is rinsed with milli-Q-H2 O before and after use. Male Wistar rats, 150-200 g are decapitated. Frontal cortex is removed quickly and weighed (approx. 200 mg). Frontal cortex is added to centrifuging vial containing 10 ml ice-cold D2 buffer. Homogenization applying polytron kinematica (homogenizer) setting 6 for 20 sec. The homogenizer is rinsed with 10 ml D2 buffer in another centrifuging vial. The 10 ml rinsing buffer is added to the tissue vial. Centrifuged at 18,000 rpm for 10 min. at 4° C. Final pellet is transferred to 125×vol. of same buffer. (Ex. 200 mg in 25 ml D2 buffer). Can be stored for approx. 30 min. at 0° C.
25 μl ^3 H-Ketanserine (0.4 nM)
25 μl test substance/H2 O/blind cyproheptadine (2 μM)
Incubation for 15 min. at 37° C.
10 ml ice-cold 0.9% NaCl is added to the tubes. Filtration is performed through GF/B filters (use gloves). This procedure is repeated. Filters are placed in counting vials, and 4 ml opti- flour is added (prepare in fume cupboard, use gloves). Counting at window 0-19 of the beta-counter (Pachard). Note that receptor box and lid are rinsed thoroughly in H2 O after use to avoid contamination. Further the analytical site is cleaned carefully every day.
Dissolved in H2 O, EtOH, MeOH or DMSO and further diluted in H2 O. The 5HT2 binding will stand concentrations of up to approx. 5% of these solvents without affecting the binding. Most stock solutions are stable at 4° C. Attention should, however, be paid to any precipitation, change in colour etc. Test-substance dilutions are always made fresh every day. When weighing out test substance, it is attempted to weigh out approx. 1 mg of substance. Less than 0.8 mg must never be weighed out and only infrequently more than 2 mg (for economy reasons) dependent, however, on conc./assay.

Another experiment deals with Dopamine D2 receptor (Rattus norvegicus, UniProt P61169). Briefly: In-Vitro Inhibition of Dopamine D2 Receptor Binding (3H-Spiroperidol). Also on record: species or system rat (male Wistar). The following applies: 3H-Spiroperidol 0.05 nM, rat striatum, 37° C., 20 min. The procedure: In-Vitro Inhibition of Dopamine D2 Receptor Binding,
Radioactive-labelled ligand ^3 H-Spiroperidol is incubated with isolated cell-membrane fragments at 37° C. for a given period of time. Following completed incubation, the incubate is filtered through GF/B filters which are rinsed following filtration to remove unspecifically adhered radioactivity. As opposed to low- molecular compounds, membrane fragments are not rinsed through the filters, the radioactivity bound to the filters is indicative of the amount of ligand bound specifically as well as nonspecifically to the membranes.
The procedure is performed in ice bath. Polytron kinematica is rinsed with milli-Q-H2 O before and after use. Male Wistar rats, 150-200 g are decapitated, striatum is removed quickly and weighed (approx. 50 mg). Striatum is transferred to a centrifuging vial containing 10 ml ice-cold D2 buffer. Homogenization is performed applying polytron kinematica (homogenizer) setting 6 for 20 sec. The homogenizer is rinsed with 10 ml D2 buffer in another centrifuging vial. The 10 ml rinsing buffer is added to the tissue vial. Centrifugation at 18,000 rpm for 10 min. at 4° C. Final pellet is transferred to 1,000×vol. of same buffer. (Ex. 50 mg striatum in 50 ml D2 buffer). Can be stored at 0° C. for at least 4 hours. Note that the tissue must homogeneous (uniform) before use. If not, brief homogenization is performed.
2,500 μl tissue (homogeneous)
25 μl ^3 H-Spiroperidol (0.05 nM)
25 μl test substance/H2 O/blind (Domperidone 0.2 μM)
Incubation for 20 min. at 37° C.-10 min. on ice bath.
10 ml ice-cold 0.9% NaCl is added to the tubes and filtered through GF/B filters (use gloves). This procedure is repeated. The filters are placed in counting vials and 4 ml opti-flour is added (perform in fume cupboard, use gloves). Counting is performed at window 0-19 of the beta-counter (Pachard). Note that receptor box and lid are rinsed thoroughly in H2 O after use to avoid contamination. Further, the analytical site is cleaned carefully every day after use.
Dissolved in H2 O, EtOH, MeOH or DMSO and further diluted in H2 O. The D2 binding will stand concentrations of up to approx. 20% of these solvents without affecting the binding. Most stock solutions are stable at 4° C., attention is, however, paid to any precipitation, change in colour etc. Test-substance dilutions are always made fresh every day. When weighing out test substances, it is attempted to weigh out approx. 1 mg of substance. Less than 0.8 mg must never be weighed out and only infrequently more than 2 mg (for economy reasons), dependent, however, on conc./assay.

Experiment [1] deals with acetic acid-induced writhings in mice. Briefly: Antagonism of Acetic Acid-Induced Writhings In Mice. It is filed as in vivo, mouse (NMRI). To be noted: Mus musculus, sc; s.c. 30 min before acetic acid 0.5 per cent i.p.; 50 per cent protection. How it is done: Antagonism of Acetic Acid-Induced Writhings In Mice
In mice i.p. injection of acetic acid induces a writhing syndrome which is antagonized by analgesics (Siegmund et al., 1957; Eckhardt et al., 1957).
Acetic acid 0.5 per cent is injected i.p. (0.15 ml/10 g body weight) to 6 mice (NMRI, either sex weighing 20-25 g) pretreated with physiological saline (controls) and to 6 mice pretreated with test substance. In the controls acetic acid induces a syndrome characterized by contraction of abdomen, turning of trunk and extension of hind limbs. Saline and test substances are administered s.c. 30 min. before acetic acid. The number of writhings is counted 5-15 min. after injection of acetic acid.
The activity is expressed as per cent protection: [formula]
The effect of active substances is evaluated by a dose response curve, log dose on the abscissa, and per cent protection on the ordinate. The potency is expressed as the dose (ED50 in mg/kg giving 50 per cent protection against writhings.
This test is used as a screening test for analgesics. Additional results from other screening tests are required to exclude active anti-writhing substances without analgesic effect.
(In general: In writhing tests, fewer writhes than in controls are read as antinociception.)

Structures can show the parent of a compound that is named as a salt.

As usually defined, the IC50 is the point on the concentration scale where inhibition reaches its midpoint. A low value points to inhibition by little substance. One may read the ED50 as the dose at which the effect has come halfway, by size or by number of responders. Lower therefore signals greater potency.

Sequence of Dopamine D2 receptor (P61169 whole entry, the tested form may be a part): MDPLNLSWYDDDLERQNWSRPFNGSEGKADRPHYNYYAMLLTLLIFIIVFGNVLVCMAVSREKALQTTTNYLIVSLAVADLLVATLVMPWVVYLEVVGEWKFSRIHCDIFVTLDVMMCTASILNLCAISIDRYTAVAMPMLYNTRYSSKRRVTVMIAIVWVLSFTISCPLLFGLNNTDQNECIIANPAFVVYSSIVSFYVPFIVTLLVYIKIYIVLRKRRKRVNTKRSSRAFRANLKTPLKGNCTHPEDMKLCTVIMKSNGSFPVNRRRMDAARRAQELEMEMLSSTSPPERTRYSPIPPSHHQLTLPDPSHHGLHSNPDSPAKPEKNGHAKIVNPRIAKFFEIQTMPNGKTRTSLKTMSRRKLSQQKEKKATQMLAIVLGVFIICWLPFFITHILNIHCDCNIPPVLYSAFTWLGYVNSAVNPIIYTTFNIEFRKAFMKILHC

Turning to `COc1cc(NC(=O)OCCCN2CCN(c3ccccc3Cl)CC2)cc(OC)c1OC.Cl` [Example 3, 4-(2-Chlorophenyl)-1-[3-(3,4,5-trimethoxyphenylcarbamoyloxy)propyl]piperazine, hydrochloride], the figures for the half-maximal inhibitory concentration (IC50) at 5HT2 receptor and at Dopamine D2 receptor were 7.5 nM and 120 nM, respectively. Also, in experiment [1], the ED50 amounted to 12 mg/kg.
With `COc1cc(NC(=O)OCCCN2CCN(c3ccc(F)cc3)CC2)cc(OC)c1OC` [Example 8, 4-(4-Fluorophenyl)-1-[3-(3,4,5-trimethoxyphenylcarbamoyloxy)propyl]piperazine, hydrochloride], the 50% inhibitory concentration (IC50) on 5HT2 receptor was 10 nM; on Dopamine D2 receptor it was 720 nM.
Taken in the same sequence, the figures for `O=C(Nc1ccc2ncsc2c1)OCCCN1CCN(c2ccc(Cl)cc2)CC1` [Example 19, 4-(4-Chlorophenyl)-1-[3-(6-benzothiazolylcarbamoyloxy)propyl]piperazine, hydrochloride] were 22 nM and 150 nM.
Taken in the same sequence, the figures for `COc1ccc2cccc(N3CCN(CCCOC(=O)Nc4ccc5c(c4)OCO5)CC3)c2c1` [Example 34, 1-(7-Methoxy-1-naphthyl)-4-[3-(3,4-methylenedioxyphenylcarbamoyloxy)propyl]piperazine, HCl] were 13 nM and 4.3 nM.
